Values of other authors in PMC10482267, “Safety, tolerability, pharmacokinetics, and pharmacodynamics of single and multiple doses of aficamten in healthy Chinese participants: a randomized, double-blind, placebo-controlled, phase 1 study” (Frontiers in Pharmacology, 2023).

Parameters: method as in Heitner et al., 2019; Olivotto et al., 2020
Details: humans; ref Heitner et al., 2019; Olivotto et al., 2020; cited from earlier work

For CC(C)n1c(=O)cc(N[C@@H](C)c2ccccc2)[nH]c1=O [Mavacamten, mavacamten], the time to steady-state is given as “approximately 6 weeks”.
